Counter-ions that a name gives are not always drawn. Like-named read-outs stand apart in the source and are kept apart here.
Legend:
PC12 cells [1] = assay: MTT conversion assay of cell viability under serum deprivation; assay type: cell-based, rat
EGFR = EGFR tyrosine phosphorylation, immunoprecipitation and Western blot in PC12 cells; assay type: cell-based, rat; conditions: for effect on leumorphin-induced tyrosine phosphorylation of EGFR: preincubation 20 min: AG1478 1 μM, PP2 5 μM, naloxone or nor-BNI 1 μM, then leumorphin 1 μM 2 min
Description: Immunoprecipitation was performed as previously described (Daub et al., 1997). In brief, cells were washed with ice-cold PBS and lysed with lysis buffer (50 mM HEPES pH 7.5, 150 mM NaCl, 1% Triton X-100, 1 mM EDTA, 10% glycerol) containing protease inhibitors (0.5 mM PMSF, 1 μg/ml leupeptin and 5 μg/ml aprotinin) and phosphatase inhibitors (30 mM NaF, 1 mM Na3VO4 and 30 mM Na4O7P2). The cell lysates were incubated for 1 hr at 4° C. After centrifugation (12,000×g for 15 min), equal amounts of soluble extract were incubated for 4 hr, with 5 μg of anti-EGFR antibody and 30 μl of resin volume of immobilized protein G For gel electrophoresis, the precipitates were dissolved in Laemmli sample buffer.
FIGS. 5C and 5D, PC12 cells were stimulated with the indicated doses of leumorphin for 10 min (C) or with 1 μM of leumorphin for the indicated times (D). […] Cell lysates were subjected to Western blot analysis after immunoprecipitation with EGFR antibodies. Tyrosine-phosphorylated EGFRs were detected by immunoblotting with phosphotyrosine antibodies. The amounts of the precipitated EGFRs were monitored by reprobing the same blot with EGFR antibodies. […] In FIG. 5G, PC12 cells were preincubated with 1 μM AG1478 or 5 μM PP2 for 20 min and then stimulated with 1 μM leumorphin for 10 min. Phosphorylation of AKT and ERK was detected by Western blot analysis as in FIG. 4F. C-E,

AKT and ERK [2] = assay type: cell-based, rat
PC12 cells [3] = assay: DNA ploidy analysis (FACS, sub-Go/Gl) in serum-deprived PC12 cells; assay type: cell-based, rat; conditions: 24 hr; for effect on the anti-apoptotic effect of leumorphin (sub-Go/Gl): antagonist 1 μM with leumorphin 1 μM
Description: Cells were suspended in PBS containing 5 mM EDTA and fixed in 100% ethanol. RNase A (50 μg/ml) was added to the suspended cells, and the cells were incubated at room temperature for 30 min. Propidium iodide (2 μg/ml) was added before reading. DNA contents of the cells were analyzed using a FACScan flow cytometer (Becton Dickinson, Franklin Lakes, N.J.), which was also used to determine the percentage of cells in the different phases of the cell cycle.
(§1) In FIG. 6A, Fragmentation of DNA in the nucleus was detected by a fluorescent TUNEL apoptosis assay. TUNEL stainings are shown in a-c, PI stainings are shown in d-f, and the merged images are presented in g-i. […] Each bar represents a fold increase of TUNEL-positive population of cells after treatment as indicated in serum-deprived condition versus those in serum-growing condition. In FIG. 6C, in order to analyze DNA ploidy, cells were fixed with ethanol, and FACS analysis was performed as described in “Materials and Methods”. In FIG. 6D, caspase-3 activity was measured by using a specific fluorogenic substrate of caspase-3 (Ac-DEVD -AMC) as described in “Materials and Methods”.

KOR = target: T1, KOR (Rattus norvegicus, UniProt P34975); assay type: cell-based
T1 construct: confirming that the KOR ligands we used have proper activities and that functional KOR is expressed in PC12 cells; endogenous in cells; host or cells: PC12 (rat pheochromocytoma)

PC12 cells [4] = assay: Competition binding assay of 125I-labeled leumorphin in PC12 cells; parameters: species or system rat
Description: Ligand binding analysis was performed as previously described (Bae et al., 2004). Briefly, PC12 cells were seeded at a density of 4×10^5 cells/well into a 12-well plate and cultured overnight. After incubating the cells in blocking buffer (33 mM HEPES (pH 7.5) and 0.1% BSA in RPMI 1640) for 2 hr, 25 pM of ^125I-labeled leumorphin dissolved in binding buffer (PBS containing 0.1% BSA) was added to the cells in the absence or presence of unlabeled ligands and incubated for 3 hr at 4° C. The samples were then washed five times with ice-cold binding buffer, and 500 μl of 1 N NaOH was added to each well. After 10 min at room temperature, the lysates were collected and counted using a gamma counter.
We investigated the possibility that leumorphin might have another binding site(s), in addition to the binding site for the KOR in PC12 cells. That is, an inhibition of [^125I]leumorphin binding in PC12 cells was investigated. PC12 cells were treated with various concentrations of unlabeled leumorphin, (−)-U-50488 and nor-BNI in the presence of ^125I-labeled leumorphin (25 pM) for 3 hr at 4° C. Specifically bound ^125I-labeled leumorphin was measured as described in “Materials and Methods”. For this purpose, we performed competition binding assay of ^125I-labeled leumorphin with unlabeled-agonists, leumorphin and (−)-U-50488, and an antagonist, nor-BNI.

caspase-3 = assay: Caspase-3 enzymatic activity in PC12 cell lysates; assay type: cell-based, rat; conditions: 24 hr
Description: PC12 cell lysates were centrifuged at 1,000×g for 10 min. Equal amount of supernatant (20 μg protein) was diluted in buffer containing 100 mM Hepes, 10% sucrose, 5 mM dithiothreitol, […], and 0.1% CHAPS (pH 7.25), and was added to each well of a 96-well plate containing 50 μM DEVD-aminomethylcoumarin (AMC). After incubation at 37° C. for 1 hr, the cleaved free AMC was detected using a fluorospectrophotometer (excitation of 355 nm, emission of 460 nm).
as §1

PC12 cells [5] = assay: TUNEL apoptosis assay in serum-deprived PC12 cells; assay type: cell-based, rat; conditions: leumorphin 1 μM, 24 hr
Description: TUNEL assay was performed according to the manufactures' instruction (Promega Corp.). Briefly, cells on coverslips were fixed with 4% paraformaldehyde for 30 min after stimulation, washed with PBS, permeabilized with 0.2% Triton X-100 for 5 min, rinsed with PBS, and were incubated with 25 μL TUNEL reaction mixture (containing enzyme, nucleotides, and fluorescein-dUTP) in a humidified atmosphere at 37° C. for 1 hr. To observe nuclear morphology, cells were counterstained with 2 μg/ml propidium iodide. Following these incubations, coverslips were rinsed with PBS three times and analyzed under conforcal microscopy We captured images which had at least 100 cells and used five different images from three independent experiments for statistic analysis.
It has been reported that in PC12 cells apoptosis can be induced by serum deprivation, which mimics the fluctuations in the supply of growth factors (Batistatou et al., 1993). […]
In FIG. 6A, Fragmentation of DNA in the nucleus was detected by a fluorescent TUNEL apoptosis assay. […] In FIG. 6D, caspase-3 activity was measured by using a specific fluorogenic substrate of caspase-3 (Ac-DEVD -AMC) as described in “Materials and Methods”.

AKT and ERK [6] = assay: AKT and ERK phosphorylation in HEK-293 cells that do not express the KOR; assay type: cell-based; conditions: data not shown

T1 sequence (P34975 whole entry): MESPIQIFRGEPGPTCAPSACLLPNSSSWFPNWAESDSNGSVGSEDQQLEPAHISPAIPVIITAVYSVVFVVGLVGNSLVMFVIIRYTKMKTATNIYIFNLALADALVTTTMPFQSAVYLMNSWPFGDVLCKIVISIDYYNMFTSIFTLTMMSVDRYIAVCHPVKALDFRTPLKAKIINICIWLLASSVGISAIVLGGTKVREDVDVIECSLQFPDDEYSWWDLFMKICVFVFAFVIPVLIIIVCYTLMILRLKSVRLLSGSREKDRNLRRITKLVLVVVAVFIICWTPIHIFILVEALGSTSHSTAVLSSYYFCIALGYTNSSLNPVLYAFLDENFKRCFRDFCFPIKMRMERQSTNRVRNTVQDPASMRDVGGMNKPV

O=c1cc(N2CCOCC2)oc2c(-c3ccccc3)cccc12 [LY294002, [2-(4-morpholinyl)-8-phenyl-4H-1-benzopyran-4-one]]
effect of kinase inhibitor on leumorphin-induced enhancement of cell viability (PC12 cells [1]; inhibitor 5 μM (AG1478 1 μM) with leumorphin 1 μM, 24 hr): attenuated

COc1cccc(-c2cc(=O)c3ccccc3o2)c1N [PD98059, [2′-amino-3′-methoxyflavone]
effect of kinase inhibitor on leumorphin-induced enhancement of cell viability (PC12 cells [1]): attenuated

CC(C)(C)n1nc(-c2ccc(Cl)cc2)c2c(N)ncnc21 [PP2]
effect on leumorphin-induced tyrosine phosphorylation of EGFR (EGFR): completely blocked to the basal level | effect on leumorphin-induced phosphorylation of AKT and ERK (AKT and ERK [2]): significantly inhibited | effect of kinase inhibitor on leumorphin-induced enhancement of cell viability (PC12 cells [1]): significantly inhibited

CS/C(N)=C(C#N)/C(C#N)=C(\N)SC [U0124]
effect of kinase inhibitor on leumorphin-induced enhancement of cell viability (PC12 cells [1]): had no effect

N#CC(=C(/N)Sc1ccccc1N)/C(C#N)=C(\N)Sc1ccccc1N [U0126]
effect of kinase inhibitor on leumorphin-induced enhancement of cell viability (PC12 cells [1]): attenuated

C=CCN1CC[C@]23c4c5ccc(O)c4O[C@H]2C(=O)CC[C@@]3(O)[C@H]1C5 [naloxone]
effect on the anti-apoptotic effect of leumorphin (sub-Go/Gl) (PC12 cells [3]): failed to block | effect on leumorphin-induced tyrosine phosphorylation of EGFR (EGFR): neither nor-BNI nor naloxone exhibited any inhibitory effect | effect on leumorphin-induced phosphorylation of AKT and ERK (AKT and ERK [2]): Neither of the antagonists, naloxone and nor-BNI, inhibited | effect on the phosphorylation level of AKT and ERK when given alone (AKT and ERK [2]): did not have any effects | effect on leumorphin-induced enhancement of cell viability (PC12 cells [1]): insensitive

Oc1ccc2c3c1O[C@H]1c4[nH]c5ccccc5c4C[C@@]4(O)[C@@H](C2)N(CC2CC2)CC[C@]314 [naltrindole]
effect on leumorphin-induced enhancement of cell viability (PC12 cells [1]): failed to attenuate | effect on leumorphin-induced increase in cell viability at higher concentration (PC12 cells [1]): failed to attenuate

Oc1ccc2c3c1O[C@H]1c4[nH]c5c(c4C[C@@]4(O)[C@@H](C2)N(CC2CC2)CC[C@]314)C[C@@]1(O)[C@H]2Cc3ccc(O)c4c3[C@@]1(CCN2CC1CC1)[C@H]5O4 [nor-BNI, nor-binaltorphimine dihydrochloride]
effect on the inhibitory effect of leumorphin on forskolin-induced increase of cAMP content (KOR): reversed | effect on the anti-apoptotic effect of leumorphin (sub-Go/Gl) (PC12 cells [3]): failed to block | concentration at which the inhibitory extent reached its maximum and was saturated (PC12 cells [4]; 25 pM 125I-labeled leumorphin, 3 hr, 4° C.): 100 nM | effect on leumorphin-induced tyrosine phosphorylation of EGFR (EGFR): neither nor-BNI nor naloxone exhibited any inhibitory effect | effect on the inhibitory effect of leumorphin on caspase activity (caspase-3; nor-BNI 1 μM with leumorphin 1 μM): not blocked | effect on leumorphin-induced phosphorylation of AKT and ERK (AKT and ERK [2]): Neither of the antagonists, naloxone and nor-BNI, inhibited | effect on the phosphorylation level of AKT and ERK when given alone (AKT and ERK [2]): did not have any effects | effect on leumorphin-induced enhancement of cell viability (PC12 cells [1]): insensitive | effect on leumorphin-induced increase in cell viability at higher concentration (PC12 cells [1]): failed to attenuate

D-Phe-Cys-Tyr-D-Trp-Om-Thr-Pen-Thr-NH2 [CTOP]
effect on leumorphin-induced enhancement of cell viability (PC12 cells [1]): failed to attenuate | effect on leumorphin-induced increase in cell viability at higher concentration (PC12 cells [1]): failed to attenuate

UFP-101
effect on leumorphin-induced phosphorylation of AKT and ERK (AKT and ERK [2]): did not have any effect

dynorphin
phosphorylation of AKT and ERK (AKT and ERK [2]): none of these effects were elicited | cell viability (MTT conversion, percentage of surviving cells) (PC12 cells [1]): did not have any significant effect on cell viability

leumorphin
effect on forskolin-induced increase of cAMP contents (KOR; agonist 1 μM, 10 min, Ro-20-1724 pretreatment): inhibitory effect | sub-Go/Gl area, indicative of the apoptotic population (PC12 cells [3]; leumorphin 1 μM, serum deprivation, 35.7±2.2% without leumorphin): 25.8±1.8% | concentration up to which the inhibitory extent continued to increase (PC12 cells [4]): 10 µM | replacement of labeled leumorphin (PC12 cells [4]): completely replaced | population of TUNEL-positive cells increased by serum deprivation (PC12 cells [5]): significantly reduced | tyrosine phosphorylation of EGFR (EGFR; indicated doses for 10 min, 1 μM for indicated times): induced tyrosine phosphorylation of EGFR in dose- and time-dependent manner | activity of caspase-3 elevated by serum-deprivation (caspase-3; leumorphin 1 μM): decreased | phosphorylation of AKT and ERK in HEK-293 cells (AKT and ERK [6]): specifically induced phosphorylation of AKT and ERK | phosphorylation of AKT and ERK (AKT and ERK [2]): specifically induced phosphorylation of both AKT and ERK | cell viability (MTT conversion, percentage of surviving cells) (PC12 cells [1]): specifically enhanced | dose- and time-dependence of enhancement of cell viability (PC12 cells [1]): dose-(FIG. 1D) and a time-dependent (FIG. 1E) manner

pertussis toxin [PTX]
effect on the inhibitory effect of leumorphin on forskolin-induced increase of cAMP content (KOR; naloxone or nor-BNI 1 μM, PTX 100 ng/ml 20 hr, leumorphin 1 μM): reversed | effect on leumorphin-induced phosphorylation of AKT and ERK (AKT and ERK [2]): did not have any inhibitory effects | effect on the phosphorylation level of AKT and ERK when given alone (AKT and ERK [2]): did not have any effects | effect on leumorphin-induced enhancement of cell viability (PC12 cells [1]): unaffected

rimorphin
phosphorylation of AKT and ERK (AKT and ERK [2]): none of these effects were elicited | cell viability (MTT conversion, percentage of surviving cells) (PC12 cells [1]): none of these effects were elicited

β-endorphin (YGGFMTSEKSQTPLVTLFKNAIIKNAYKKGE; Beta-endorphin; UniProt P01189 237-267, looked up) [an agonist of the ε-type receptor]
phosphorylation of AKT and ERK (AKT and ERK [2]): neither AKT nor ERK was phosphorylated

β-neoendorphin (YGGFLRKYP; Beta-neoendorphin; UniProt P01213 175-183, looked up) [prodynorphin gene product, endogenous KOR ligand]
phosphorylation of AKT and ERK (AKT and ERK [2]): none of these effects were elicited | cell viability (MTT conversion, percentage of surviving cells) (PC12 cells [1]): none of these effects were elicited
